# From US8088815B2, “Spiroindolinone pyrrolidines” (Hoffman-La Roche Inc., priority 2009, dated 2012)
# Biological target: interaction between p53 and MDM2 proteins (Homo sapiens, UniProt Q00987)
# Assay: HTRF assay of inhibition of the p53-MDM2 interaction (GST-MDM2 / biotinylated p53 peptide)
# Assay type: binding
# Details: recombinant GST-tagged MDM2 and biotinylated p53 peptide, bsa:0.02%
# Sequence of interaction between p53 and MDM2 proteins (Q00987 whole entry): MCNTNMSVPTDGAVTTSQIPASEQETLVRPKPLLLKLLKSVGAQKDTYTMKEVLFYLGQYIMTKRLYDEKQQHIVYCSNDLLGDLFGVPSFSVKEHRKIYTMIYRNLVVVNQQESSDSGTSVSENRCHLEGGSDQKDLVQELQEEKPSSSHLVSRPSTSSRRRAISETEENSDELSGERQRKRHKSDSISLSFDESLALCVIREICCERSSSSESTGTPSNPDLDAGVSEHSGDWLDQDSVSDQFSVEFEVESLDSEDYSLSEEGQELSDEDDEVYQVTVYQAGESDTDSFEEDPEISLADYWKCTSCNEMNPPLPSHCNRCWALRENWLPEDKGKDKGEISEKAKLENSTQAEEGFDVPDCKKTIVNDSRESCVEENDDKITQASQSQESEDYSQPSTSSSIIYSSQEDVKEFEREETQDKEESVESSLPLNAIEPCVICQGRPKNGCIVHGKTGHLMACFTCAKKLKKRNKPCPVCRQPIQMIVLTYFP
row,Compound,IC50
1,"CCCCOc1cc(C(=O)OC)ccc1NC(=O)[C@@H]1N[C@@H](CC(C)(C)C)[C@@]2(C(=O)Nc3cc(Cl)ccc32)[C@H]1c1cccc(Cl)c1F (racemic) [Example 150, rac-3-butoxy-4-{[(2′S,3′R,4′S,5′R)-6-chloro-4′-(3-chloro-2-fluoro-phenyl)-2′-(2,2-dimethyl-propyl)-2-oxo-1,2-dihydro-spiro[indole-3,3′-pyrrolidine]-5′-carbonyl]-amino}-benzoic acid methyl ester]",15 nM
2,"CCCCOc1cc(C(=O)O)ccc1NC(=O)[C@@H]1N[C@@H](CC(C)(C)C)[C@@]2(C(=O)Nc3cc(Cl)ccc32)[C@H]1c1cccc(Cl)c1F (racemic) [Example 151, rac-3-butoxy-4-{[(2′S,3′R,4′S,5′R)-6-chloro-4′-(3-chloro-2-fluoro-phenyl)-2′-(2,2-dimethyl-propyl)-2-oxo-1,2-dihydro-spiro[indole-3,3′-pyrrolidine]-5′-carbonyl]amino}-benzoic acid]",13 nM
3,"CCCCOc1cc(C(N)=O)ccc1NC(=O)[C@@H]1N[C@@H](CC(C)(C)C)[C@@]2(C(=O)Nc3cc(Cl)ccc32)[C@H]1c1cccc(Cl)c1F (racemic) [Example 152, rac-(2′S,3′R,4′S,5′R)-6-chloro-4′-(3-chloro-2-fluoro-phenyl)-2′-(2,2-dimethyl-propyl)-2-oxo-1,2-dihydro-spiro[indole-3,3′-pyrrolidine]-5′-carboxylic acid (2-butoxy-4-carbamoyl-phenyl)-amide]",11 nM
4,"COc1cc(-n2cnnn2)ccc1NC(=O)[C@@H]1N[C@@H](CC(C)(C)C)[C@@]2(C(=O)Nc3cc(Cl)ccc32)[C@H]1c1cccc(Cl)c1F (racemic) [Example 153, rac-(2′S,3′R,4′S,5′R)-6-chloro-4′-(3-chloro-2-fluoro-phenyl)-2′-(2,2-dimethyl-propyl)-2-oxo-1,2-dihydro-spiro[indole-3,3′-pyrrolidine]-5′-carboxylic acid (2-methoxy-4-tetrazol-1-yl-phenyl)-amide]",8 nM
5,"COc1cc(N(C)C)ccc1NC(=O)[C@@H]1N[C@@H](CC(C)(C)C)[C@@]2(C(=O)Nc3cc(Cl)ccc32)[C@H]1c1cccc(Cl)c1F (racemic) [Example 164, rac-(2′S,3′R,4′S,5′R)-6-chloro-4′-(3-chloro-2-fluoro-phenyl)-2′-(2,2-dimethyl-propyl)-2-oxo-1,2-dihydro-spiro[indole-3,3′-pyrrolidine]-5′-carboxylic acid (4-dimethylamino-2-methoxy-phenyl)-amide]",18 nM
6,"CNc1cc(C(=O)OC)ccc1NC(=O)[C@@H]1N[C@@H](CC(C)(C)C)[C@@]2(C(=O)Nc3cc(Cl)ccc32)[C@H]1c1cccc(Cl)c1F (racemic) [Example 166, rac-4-{[(2′S,3′R,4′S,5′R)-6-chloro-4′-(3-chloro-2-fluoro-phenyl)-2′-(2,2-dimethyl-propyl)-2-oxo-1,2-dihydro-spiro[indole-3,3′-pyrrolidine]-5′-carbonyl]amino}-3-methylamino-benzoic acid methyl ester]",25 nM
7,"CC(C)(C)C[C@@H]1N[C@@H](C(=O)Nc2ccc(C#N)cc2)[C@H](c2cccc(Cl)c2F)[C@]12C(=O)Nc1c2ccc(Cl)c1F (racemic) [Example 175, rac-(2′S,3′R,4′S,5′R)-6-chloro-4′-(3-chloro-2-fluoro-phenyl)-2′-(2,2-dimethyl-propyl)-7-fluoro-2-oxo-1,2-dihydro-spiro[indole-3,3′-pyrrolidine]-5′-carboxylic acid (4-cyano-phenyl)-amide]",40 nM
8,"COc1cc(OCCO)ccc1NC(=O)[C@@H]1N[C@@H](CC(C)(C)C)[C@@]2(C(=O)Nc3c2ccc(Cl)c3F)[C@H]1c1cccc(Cl)c1F (racemic) [Example 179, rac-(2′S,3′R,4′S,5′R)-6-chloro-4′-(3-chloro-2-fluoro-phenyl)-2′-(2,2-dimethyl-propyl)-7-fluoro-2-oxo-1,2-dihydro-spiro[indole-3,3′-pyrrolidine]-5′-carboxylic acid [4-(2-hydroxy-ethoxy)-2-methoxy-phenyl]-amide]",39 nM
9,"CC(C)(C)C[C@@H]1N[C@@H](C(=O)Nc2ccc(C#N)nc2)[C@H](c2cccc(Cl)c2F)[C@]12C(=O)Nc1cc(Cl)ccc12 (racemic) [Example 182, rac-(2′S,3′R,4′S,5′R)-6-chloro-4′-(3-chloro-2-fluoro-phenyl)-2′-(2,2-dimethyl-propyl)-2-oxo-1,2-dihydro-spiro[indole-3,3′-pyrrolidine]-5′-carboxylic acid (6-cyano-pyridin-3-yl)-amide]",17 nM

# More lines, in order of falling IC50, values ahead:
row,IC50,Compound
1,21 nM,"COc1cc(C#N)ccc1NC(=O)[C@@H]1N[C@@H](CC(C)(C)C)[C@@]2(C(=O)Nc3c2ccc(Cl)c3F)[C@H]1c1cccc(Cl)c1F (racemic) [Example 177, rac-(2′S,3′R,4′S,5′R)-6-chloro-4′-(3-chloro-2-fluoro-phenyl)-2′-(2,2-dimethyl-propyl)-7-fluoro-2-oxo-1,2-dihydro-spiro[indole-3,3′-pyrrolidine]-5′-carboxylic acid (4-cyano-2-methoxy-phenyl)-amide]"
2,19 nM,"COc1cnccc1NC(=O)[C@@H]1N[C@@H](CC(C)(C)C)[C@@]2(C(=O)Nc3cc(Cl)ccc32)[C@H]1c1cccc(Cl)c1F (racemic) [Example 162, rac-(2′S,3′R,4′S,5′R)-6-chloro-4′-(3-chloro-2-fluoro-phenyl)-2′-(2,2-dimethyl-propyl)-2-oxo-1,2-dihydro-spiro[indole-3,3′-pyrrolidine]-5′-carboxylic acid (3-methoxy-pyridin-4-yl)-amide]"
3,18 nM,"CC(C)(C)C[C@@H]1N[C@@H](C(=O)Nc2ccc(C(N)=O)cc2)[C@H](c2cccc(Cl)c2F)[C@]12C(=O)Nc1c2ccc(Cl)c1F (racemic) [Example 176, rac-(2′S,3′R,4′S,5′R)-6-chloro-4′-(3-chloro-2-fluoro-phenyl)-2′-(2,2-dimethyl-propyl)-7-fluoro-2-oxo-1,2-dihydro-spiro[indole-3,3′-pyrrolidine]-5′-carboxylic acid (4-carbamoyl-phenyl)-amide]"
4,15 nM,"COc1cc(C(N)=O)ccc1NC(=O)[C@@H]1N[C@@H](CC(C)(C)C)[C@@]2(C(=O)Nc3c2ccc(Cl)c3F)[C@H]1c1cccc(Cl)c1F (racemic) [Example 178, rac-(2′S,3′R,4′S,5′R)-6-chloro-4′-(3-chloro-2-fluoro-phenyl)-2′-(2,2-dimethyl-propyl)-7-fluoro-2-oxo-1,2-dihydro-spiro[indole-3,3′-pyrrolidine]-5′-carboxylic acid (4-carbamoyl-2-methoxy-phenyl)-amide]"
5,13 nM,"COc1cc(NS(C)(=O)=O)ccc1NC(=O)[C@@H]1N[C@@H](CC(C)(C)C)[C@@]2(C(=O)Nc3cc(Cl)ccc32)[C@H]1c1cccc(Cl)c1F (racemic) [Example 155, rac-(2′S,3′R,4′S,5′R)-6-chloro-4′-(3-chloro-2-fluoro-phenyl)-2′-(2,2-dimethyl-propyl)-2-oxo-1,2-dihydro-spiro[indole-3,3′-pyrrolidine]-5′-carboxylic acid (4-methanesulfonylamino-2-methoxy-phenyl)-amide]"
6,10 nM,"CNc1cc(C(=O)O)ccc1NC(=O)[C@@H]1N[C@@H](CC(C)(C)C)[C@@]2(C(=O)Nc3cc(Cl)ccc32)[C@H]1c1cccc(Cl)c1F (racemic) [Example 167, rac-4-{[(2′S,3′R,4′S,5′R)-6-chloro-4′-(3-chloro-2-fluoro-phenyl)-2′-(2,2-dimethyl-propyl)-2-oxo-1,2-dihydro-spiro[indole-3,3′-pyrrolidine]-5′-carbonyl]-amino}-3-methylamino-benzoic acid]"
